The test has as its target BlaC (β-lactamase) (Mycobacterium tuberculosis, UniProt P9WKD3). It is filed as biochemical. To be noted: read-out: KI.

Sequence of BlaC (β-lactamase) (P9WKD3 41-307): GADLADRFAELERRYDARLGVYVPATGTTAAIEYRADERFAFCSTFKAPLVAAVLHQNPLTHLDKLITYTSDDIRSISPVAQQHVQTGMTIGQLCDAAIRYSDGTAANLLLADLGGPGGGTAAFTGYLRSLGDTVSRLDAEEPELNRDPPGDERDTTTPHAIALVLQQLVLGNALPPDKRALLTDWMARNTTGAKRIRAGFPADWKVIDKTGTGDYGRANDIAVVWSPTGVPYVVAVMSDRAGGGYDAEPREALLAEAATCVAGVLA

As to `O=C(O)[C@H]1/C(=C/CO)O[C@@H]2CC(=O)N21` [clavulanate], the KI (inactivation) worked out at 6.3 µM.

The values above are taken from publication PMC4795174 (Biochemistry, 2015).
